Data on 2 compounds can be found in patent publication US10011573B2, “Human androgen receptor DNA-binding domain (DBD) compounds as therapeutics and methods for their use” (The University of British Columbia, priority 2014, dated 2018).

Series [1] deals with FKBP5. Kind of series: Western blot FKBP5 protein in R1-D567 cells. Format: cell-based, human. The procedure: (§1) Cell lysates (40 μl) from luciferase assays (96-well plate) were separated on a 10% SDS-polyacrylamide mini gel. Protein was transferred to methanol-charged PVDF membranes and probed with anti-AR441 (mouse, Sigma™) monoclonal primary antibody. Blots were also probed with polyclonal anti-actin (rabbit, Sigma™) to show equal loading and polyclonal anti-PARP/anti-cleaved PARP (rabbit, Sigma™) to test for induction of apoptosis. Lysates from CWR-R1 cells were additionally probed with polyclonal anti-FKBP5 (rabbit, Sigma™) following 2 days of incubation with compounds.
For orientation: Immunoblotting shows a protein as a band on a membrane.

Series [2] concerns the target T1, full-length human AR (Homo sapiens, UniProt P10275).
T1 construct: expressed in transfected cells; host or cells: PC3 (AR-negative human prostate cancer cells)
T1 sequence (P10275 1-920): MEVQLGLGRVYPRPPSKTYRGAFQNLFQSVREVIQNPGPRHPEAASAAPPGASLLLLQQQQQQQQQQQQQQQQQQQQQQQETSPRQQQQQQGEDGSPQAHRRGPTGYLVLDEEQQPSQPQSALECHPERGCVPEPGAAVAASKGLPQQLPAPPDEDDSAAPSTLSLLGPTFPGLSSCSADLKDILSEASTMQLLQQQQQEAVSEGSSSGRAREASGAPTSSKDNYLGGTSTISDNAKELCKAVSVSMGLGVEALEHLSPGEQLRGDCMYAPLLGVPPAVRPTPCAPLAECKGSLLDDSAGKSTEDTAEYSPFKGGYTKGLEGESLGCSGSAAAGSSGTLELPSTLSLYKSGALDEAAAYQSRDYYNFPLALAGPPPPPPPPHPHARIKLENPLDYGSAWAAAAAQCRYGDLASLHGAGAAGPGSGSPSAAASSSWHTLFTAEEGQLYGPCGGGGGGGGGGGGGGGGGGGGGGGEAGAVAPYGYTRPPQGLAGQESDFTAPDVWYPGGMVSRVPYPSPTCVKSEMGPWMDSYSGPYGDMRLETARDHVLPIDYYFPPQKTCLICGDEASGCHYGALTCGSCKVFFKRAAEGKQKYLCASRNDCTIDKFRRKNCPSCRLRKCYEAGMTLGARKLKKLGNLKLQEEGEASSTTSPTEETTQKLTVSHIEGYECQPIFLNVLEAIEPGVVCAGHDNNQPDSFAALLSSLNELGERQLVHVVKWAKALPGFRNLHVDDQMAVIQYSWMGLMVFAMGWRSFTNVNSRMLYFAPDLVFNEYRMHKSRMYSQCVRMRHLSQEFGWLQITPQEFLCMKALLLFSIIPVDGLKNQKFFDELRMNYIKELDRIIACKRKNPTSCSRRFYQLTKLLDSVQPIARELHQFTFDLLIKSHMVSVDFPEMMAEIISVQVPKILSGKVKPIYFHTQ
Kind of series: ARR3tk-luciferase reporter assay in PC3 cells, wild-type AR. Format: cell-based. As to conditions: transient AR, R1881. Here is the method: 9. Transient Transfection: The PC3/MCF7 cells were seeded into a 96-well plate (2,000 cells/well). After 24 hrs, the wild-type AR (50 ng/well)/AR mutants and AR3TK-luciferase plasmids (1:3) were co-transfected into PC3 cells or ERE-luciferase (50 ng/well) was transfected into MCF7 cells using transfection reagent TT20. 24 hrs after the transfection, the cells were treated with the compounds at various concentrations. And 24 hrs later, the cells were lysed and the reading was taken using a luminometer.

For series [3], the system named is PSA. In words: PSA measurements, LNCaP cells, 1 nM R1881, 2 days. Format: cell-based, human. Here is the method: Following the incubation period, 150 μl of the media was taken from each well, and PSA levels were quantified using a Cobas e411 analyzer (Roche Applied Science™) according to the manufacturer's instructions. The same instrument was used to analyze serum PSA from mice during the in vivo analysis.

Series [4] relates to PARP. In words: Western blots against PARP / cleaved PARP (apoptosis). Type of series: cell-based, human. The settings on record: PC3 luciferase assay lysates. The procedure:
as §1

Series [5] addresses T2, androgen receptor (AR) (Homo sapiens, UniProt P10275, T878A).
T2 sequence (P10275 1-920 T878A): T1 sequence (P10275 1-920) with T878A
Kind of series: eGFP cellular AR transcription assay (LNCaP eGFP cells, LN-ARR2PB-eGFP).

The mark [6] stands for this setting: eGFP IC50, LNCaP eGFP cells, 0.1 nM R1881.

Changes are numbered by the printed parent chain.

Consider `Brc1ncn(-c2csc(N3CCOCC3)n2)c1Br` [Compound 14449], for which, in series [1], the “FKBP5 protein expression, R1-D567 cells” value is given as “reduced”. Moreover, the IC50 in series [2] was found to be 0.34 µM; in series [5] (eGFP IC50 (μM), Series 1) it was 0.1 µM; in series [5] (setting [6]), 0.12 ± 0.01 µM. Besides, the “IC50 secreted PSA” value in series [3] is “sub-micromolar”. Also, in series [4], the “toxicity / induction of apoptosis (PARP cleavage)” value is “little or no toxicity”. Moreover, the “fold improved activities compared to compound 6 (14228)” value in series [5] worked out at 2 fold.
With `c1ccc(-c2csc(N3CCOCC3)n2)cc1` [Compound 14228, 4-(4-phenylthiazol-2-yl)morpholine], in series [1], the “FKBP5 protein expression, R1-D567 cells” value is given as “reduced”. In addition, the IC50 in series [2] was found to be 2.36 µM; in series [5] (eGFP IC50 (μM), Series 1), 0.33 µM; in series [5] (setting [6]) it was 0.274 µM. Besides, the “IC50 secreted PSA” value in series [3] is “sub-micromolar”. Further, the “toxicity / induction of apoptosis (PARP cleavage)” value in series [4] is “little or no toxicity”. Also, the inhibition at 3 µM in series [5] (LNCaP, read-out: % Inhibition (3 μM)) is 110%.

A word on the IC50: it is the midpoint of a concentration-inhibition curve. As usually defined, the inhibition is the drop in the measured response relative to a control, in per cent.
